Laboratory results: ChEMBL document CHEMBL4477222, “Discovery of Novel Thiophene-Based, Thumb Pocket 2 Allosteric Inhibitors of the Hepatitis C NS5B Polymerase with Improved Potency and Physicochemical Profiles” (J Med Chem, 2016)
Converted amounts (≈) assume the structure as drawn. The source made the active and inactive calls. No cut-off for these calls is given here.

Experiments:
[1] = Cytotoxicity against human W11.8 cells assessed as reduction in cell viability after 4 days; format: cell-based
[2] = target: Nonstructural protein 5A (Hepatitis C virus, UniProt Q5L478); experiment: Inhibition of HCV genotype 2a NS5A; design: species or system Hepatitis C virus subtype 2a
[3] = target: RNA-directed RNA polymerase (Hepacivirus hominis, UniProt O39930, L419M); experiment: Inhibition of HCV genotype 1a NS5B L419M mutant; design: species or system Hepatitis C virus subtype 1a
[4] = target: RNA-directed RNA polymerase (Hepacivirus hominis, UniProt O39930, L419I); experiment: Inhibition of HCV genotype 1a NS5B L419I mutant; design: species or system Hepatitis C virus subtype 1a
[5] = target: RNA-directed RNA polymerase (Hepacivirus hominis, UniProt O39930, M423I); experiment: Inhibition of HCV genotype 1a NS5B M423I mutant; design: species or system Hepatitis C virus subtype 1a
[6] = target: RNA-directed RNA polymerase (Hepacivirus hominis, UniProt O39930, M423V); experiment: Inhibition of HCV genotype 1a NS5B M423V mutant; design: species or system Hepatitis C virus subtype 1a
[7] = tested on: Hepatitis C virus subtype 1b; experiment: Inhibition of HCV genotype 1b NS5B assessed as suppression of sub-genomic RNA levels at 0.5 times IC50 after 96 hrs in presence of human interferon alpha2a and ribavirin by luciferase reporter gene assay
[8] = Metabolic stability in rat hepatocytes assessed as compound remaining at 10 uM after 2 hrs; format: ADME, cell-based, Hepatocyte; conditions: read-out: Stability
[9] = Metabolic stability in rat liver microsomal S9 fraction assessed as compound remaining at 1 uM after 2 hrs in presence of NADPH; format: ADME, subcellular; conditions: read-out: Stability
[10] = Protein binding in rat liver at 1 uM; format: ADME, tissue-based; conditions: read-out: PB (converted)
[11] = Metabolic stability in dog hepatocytes assessed as compound remaining at 10 uM after 2 hrs; format: ADME, cell-based, Canis lupus familiaris, Hepatocyte; conditions: read-out: Stability
[12] = Metabolic stability in dog liver microsomal S9 fraction assessed as compound remaining at 1 uM after 2 hrs in presence of NADPH; format: ADME, subcellular, Canis lupus familiaris; conditions: read-out: Stability
[13] = Metabolic stability in monkey liver microsomal S9 fraction assessed as compound remaining at 1 uM after 2 hrs in presence of NADPH; format: ADME, subcellular, Macaca mulatta; conditions: rhesus monkey, read-out: Stability
[14] = Metabolic stability in monkey liver microsomal S9 fraction assessed as compound remaining at 1 uM after 2 hrs in presence of NADPH/UDPGA; format: ADME, subcellular, Macaca mulatta; conditions: rhesus monkey, read-out: Stability
[15] = Protein binding in monkey liver at 1 uM; format: ADME, tissue-based, Macaca mulatta; conditions: rhesus monkey, read-out: PB (converted)
[16] = Metabolic stability in human hepatocytes assessed as compound remaining at 10 uM after 2 hrs; format: ADME, cell-based, Hepatocyte; conditions: read-out: Stability
[17] = Metabolic stability in human liver microsomal S9 fraction assessed as compound remaining at 1 uM after 2 hrs in presence of NADPH; format: ADME, subcellular; conditions: read-out: Stability
[18] = Protein binding in human liver at 1 uM; format: ADME, tissue-based; conditions: read-out: PB (converted)
[19] = target: T1, Cytochrome P450 3A4 (Homo sapiens, UniProt P08684); experiment: Drug metabolism in human liver S9 fraction assessed as CYP3A4-mediated metabolite formation after 1 hr; format: ADME, subcellular; conditions: s9, 1 h
[20] = Drug level in rat plasma; format: ADME, cell-free
[21] = target: Cytochrome P450 2E1 (Homo sapiens, UniProt P05181); experiment: Inhibition of CYP2E1 (unknown origin); format: ADME
[22] = target: Cytochrome P450 1A2 (Homo sapiens, UniProt P05177); experiment: Induction of CYP1A2 (unknown origin) in hepatocytes; format: ADME, cell-based
[23] = target: T1, Cytochrome P450 3A4; experiment: Induction of CYP3A4 (unknown origin) in hepatocytes; format: ADME, cell-based
[24] = tested on: Hepatocyte; experiment: Change in CYP3A4 mRNA levels in hepatocytes (unknown origin); format: ADME, cell-based
[25] = tested on: MDR1; experiment: Efflux ratio of permeability from basolateral to apical side over apical to basolateral side in MDCK cells expressing MDR1; format: ADME, cell-based, Canis lupus familiaris; conditions: dog
[26] = Volume of distribution at steady state in Sprague-Dawley rat at 1 mg/kg, iv through bolus administration; format: ADME, organism-based; conditions: in vivo, read-out: Vdss
[27] = Cmax in Sprague-Dawley rat at 3 mg/kg, po; format: ADME, organism-based; design: dose 3 mg/kg, route oral; conditions: in vivo
[28] = Oral bioavailability in Sprague-Dawley rat at 3 mg/kg; format: ADME, organism-based; conditions: in vivo
[29] = Ratio of drug level in liver to lungs in Sprague-Dawley rat at 10 mg/kg, po; format: ADME, organism-based, Liver/Lung; conditions: in vivo
[30] = Ratio of drug level in liver to heart in Sprague-Dawley rat at 10 mg/kg, po; format: ADME, organism-based; conditions: in vivo
[31] = Ratio of drug level in liver to kidney in Sprague-Dawley rat at 10 mg/kg, po; format: ADME, organism-based; conditions: in vivo
[32] = Drug uptake in Sprague-Dawley rat plasma at 10 mg/kg, po administered as single dose; format: ADME, organism-based; conditions: in vivo
[33] = Oral bioavailability in dog at 3 mg/kg; format: ADME, organism-based, Canis lupus familiaris; conditions: in vivo
[34] = Half life in Fischer 344 rat at 1 mg/kg, iv through bolus administration; format: ADME, organism-based; conditions: in vivo
[35] = Oral bioavailability in Fischer 344 rat at 3 mg/kg; format: ADME, organism-based; conditions: in vivo
[36] = AUC (0 to infinity) in dog at 1 mg/kg, iv through bolus administration; format: ADME, organism-based, Canis lupus familiaris; design: dose 1 mg/kg, route intravenous, time infinity; conditions: in vivo
[37] = Clearance in dog at 1 mg/kg, iv through bolus administration; format: ADME, organism-based, Canis lupus familiaris; conditions: in vivo
[38] = AUC (0 to infinity) in dog at 3 mg/kg, po; format: ADME, organism-based, Canis lupus familiaris; design: dose 3 mg/kg, time infinity, route oral; conditions: in vivo
[39] = Ratio of drug level in plasma to lungs in Sprague-Dawley rat at 10 mg/kg, po; format: ADME, organism-based, Lung/Plasma; conditions: in vivo
[40] = Solubility of the compound in potassium phosphate buffer at pH 7; format: physicochemical
[41] = Solubility of the compound in FaSSIF at pH 6.3; format: physicochemical
[42] = Solubility of the compound in FeSSIF at pH 5.2; format: physicochemical
[43] = Chemical stability of compound under long term storage in solution; format: physicochemical
[44] = tested on: NS3 protease (Hepacivirus C), C1KIQ2 [V36M]; experiment: Inhibition of telaprevir-resistant HCV NS3 protease V36M mutant; conditions: Hepacivirus hominis
[45] = tested on: NS3 (Hepatitis C virus), A3EZJ3 [R155K,V36M]; experiment: Inhibition of telaprevir-resistant HCV NS3 protease V36M/R155K double mutant; conditions: Hepacivirus hominis
[46] = tested on: Nonstructural protein 5A (Hepatitis C virus), Q5L478 [UNDEFINED MUTATION]; experiment: Inhibition of BMS-790052-resistant HCV genotype 1a NS5A Q30R mutant; conditions: Hepatitis C virus subtype 1a
[47] = tested on: Nonstructural protein 5A (Hepatitis C virus), Q5L478 [UNDEFINED MUTATION]; experiment: Inhibition of BMS-790052-resistant HCV genotype 1a NS5A L31V mutant; conditions: Hepatitis C virus subtype 1a
[48] = tested on: Nonstructural protein 5A (Hepatitis C virus), Q5L478 [UNDEFINED MUTATION]; experiment: Inhibition of BMS-790052-resistant HCV genotype 1a NS5A P32L mutant; conditions: Hepatitis C virus subtype 1a
[49] = tested on: Nonstructural protein 5A (Hepatitis C virus), Q5L478 [Y93C]; experiment: Inhibition of BMS-790052-resistant HCV genotype 1a NS5A Y93C mutant; conditions: Hepatitis C virus subtype 1a
[50] = tested on: Nonstructural protein 5A (Hepatitis C virus), Q5L478 [UNDEFINED MUTATION]; experiment: Inhibition of BMS-790052-resistant HCV genotype 1b NS5A Y93H mutant; conditions: Hepatitis C virus subtype 1b
[51] = target: Nonstructural protein 5A (Hepatitis C virus) (UniProt Q5L478); experiment: Ratio of EC50 for HCV genotype 1b NS5A infected in human l389lucubi- neo/NS3-375.1-containing Huh7ET cells in presence of 40% human serum to EC50 for HCV genotype 1b NS5A infected in human l389lucubi- neo/NS3-375.1-containing Huh7ET cells; conditions: Hepatitis C virus subtype 1b

`CC(C)(C)C#Cc1cc(N(CC(=O)N2CCOCC2)C(=O)[C@H]2CC[C@H](C)CC2)c(C(=O)O)s1` showed a CC50 at 96 h [1] greater than 20000 nM, an EC50 [2] of 4800 nM and an EC50 [3] of 240 nM. For the same compound, the EC50 [4] was 400 nM, the EC50 [5] was 89 nM and the EC50 [6] was 120 nM. The inhibition [7] was “Active”, the remaining at 2 h, 10 µM [8] was 100% and the remaining at 2 h, 1 µM [9] was 99%. For the same compound, the fraction unbound at 1 µM [10] was 0.162, the remaining at 2 h, 10 µM [11] was 70% and the remaining at 2 h, 1 µM [12] was 82%. It also gave a remaining at 2 h, 1 µM [13] of 19%, a remaining at 2 h, 1 µM [14] of 14% and a fraction unbound at 1 µM [15] of 0.093. For the same compound, the remaining at 2 h, 10 µM [16] was 77%, the remaining at 2 h, 1 µM [17] was 76% and the fraction unbound at 1 µM [18] was 0.153. The Drug metabolism [19] was less than 5%, the Drug uptake [20] was “Active” and the IC50 [21] was 14000 nM. The Activity [22] was “Not Active”, the Activity [23] was “Not Active” and the Activity [24] was “Non-Toxic”. The efflux ratio [25] was 9.8, the Vd [26] was 1.55 L/kg and the Cmax [27] was 1730 ng/mL. For the same compound, the bioavailability [28] was 69%, the Ratio [29] was 10 and the Ratio [30] was 10. The Ratio [31] was 10, the Drug uptake [32] was “Active” and the bioavailability [33] was 57.3%. For the same compound, the half-life [34] was 1.67 h, the bioavailability [35] was 6.5% and the AUC(0-inf) [36] was 1360 ng·h/mL. For the same compound, the clearance [37] was 10.1 mL/min/kg, the AUC(0-inf) [38] was 2340 ng·h/mL and the Ratio [39] was 10. For the same compound, the solubility [40] was 1800 µg/mL (≈ 3.79 mM), the solubility [41] was 1700 µg/mL (≈ 3.58 mM) and the solubility [42] was 800 µg/mL (≈ 1.69 mM). The Stability [43] was “Stable”, the inhibition [44] was “Active” and the inhibition [45] was “Active”. The inhibition [46] was “Active”, the inhibition [47] was “Active” and the inhibition [48] was “Active”. The inhibition [49] was “Active”, the inhibition [50] was “Active” and the Ratio EC50 [51] was 10 to 20.
